As a reminder, the IC50 is the concentration that gives 50% inhibition.

In the first assay the target is T1, r-NAAA (Rattus norvegicus, UniProt Q5KTC7).
T1 construct: Lysosomal NAAA protein preparation was obtained by homogenizing male Sprague-Dawley rat lungs; tissue Charles River; host or cells: male Sprague-Dawley rat lung, soluble lysosomal fraction
T1 sequence (Q5KTC7 34-362): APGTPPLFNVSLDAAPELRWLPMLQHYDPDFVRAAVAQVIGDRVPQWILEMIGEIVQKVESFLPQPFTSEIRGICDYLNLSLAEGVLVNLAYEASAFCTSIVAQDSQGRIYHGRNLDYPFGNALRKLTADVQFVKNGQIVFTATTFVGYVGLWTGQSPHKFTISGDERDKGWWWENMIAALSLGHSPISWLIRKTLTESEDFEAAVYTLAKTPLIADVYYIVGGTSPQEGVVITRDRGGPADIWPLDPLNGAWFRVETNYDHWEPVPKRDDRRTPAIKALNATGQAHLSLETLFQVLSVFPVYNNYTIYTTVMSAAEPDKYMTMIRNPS
In words: UPLC/MS r-NAAA assay. The format is biochemical. Conditions: @ 3 μM; read-out: r-NAAA UPLC/MS assay % inhib. The procedure:
Lysosomal NAAA protein preparation was obtained by homogenizing male Sprague-Dawley rat lungs (Charles River) in 20 mM Tris-HCl buffer pH 7.4 containing 0.32M sucrose. Samples were centrifuged at 800×g for 15 min at 4° C. Supernatants were centrifuged at 12,000×g for 30 min at 4° C. Pellets were then resuspended in PBS pH 7.4 and subjected to a freeze/thaw cycle at −80° C. The suspension was finally centrifuged at 105,000 g for 1 h at 4° C. The supernatant was used in enzymatic assays.
NAAA preparations were pre-incubated with various concentrations of test compounds or vehicle control in 100 mM NaH2PO4/Citrate buffer, 1% Triton-X, 3 mM DTT (pH 4.5) for 30 min at 37° C. Samples were incubated with heptadecenoylethanolamide (50 μM, Avanti Polar Lipids) at 37° C. for 30 min. The reaction was terminated by addition of cold methanol containing heptadecanoic acid (NuCheck Prep) as internal standard. Samples were analyzed by UPLC/MS (Acquity, Waters). Heptadecenoic and heptadecanoic acids were eluted on an Acquity UPLC BEH C18 column (50 mm length, 2.1 mm i.d., 1.7 μm pore size, Waters) isocratically at 0.5 mL/min for 1.5 min with a solvent mixture of 95% methanol and 5% H2O, both containing 0.25% Acetic Acid and 5.0 mM ammonium acetate. The column temperature was 40° C. Electrospray ionization was in the negative mode, capillary voltage was 0.5 kV, cone voltage was […], desolvation temperature was 500° C. N2 was used as drying gas at a flow rate of 1000 L/hour and a temperature of 500° C. The [M−H]^− ion was monitored in the selected-ion monitoring mode (m/z values: heptadecenoic acid 267.37, heptadecanoic acid 269.37). Calibration curves were generated using commercial heptadecenoic acid (NuCheck Prep) Inhibition of NAAA activity was calculated as reduction of heptadecenoic acid in the samples compared to vehicle controls. IC50 values were calculated by non-linear regression analysis of log [concentration]/inhibition curves using GraphPad Prism 5 (GraphPad Software Inc., CA—USA) applying a standard slope curve fitting.
Regarding `O=C(N[C@H]1CNC1=O)c1ccc(-c2ccccc2)cc1` [Example 1, 4-Phenyl-N-[(3S)-2-oxoazetidin-3-yl]-benzamide], the inhibition at 3 µM worked out at 15%.

In the case of `O=C(N[C@@H]1CNC1=O)c1ccc(-c2ccccc2)cc1` [Example 2, 4-Phenyl-N-[(3R)-2-oxoazetidin-3-yl]-benzamide], the inhibition at 3 µM was 10%. Regarding `O=C(CCCCCCc1ccccc1)N[C@@H]1CNC1=O` [Example 8, 7-Phenyl-N-[(3R)-2-Oxoazetidin-3-yl]-heptanamide], the inhibition at 3 µM worked out at 30%. Same read-out and setting: under `O=C(N[C@@H]1CNC1=O)c1ccc(OCc2ccccc2)cc1` [Example 12, 4-Benzyloxy-N-[(3R)-2-oxoazetidin-3-yl]-benzamide] stands 10%.

The same assay, now with this note: @ 30 μM; read-out: r-NAAA UPLC/MS assay % inhib.
Consider `O=C(CCCOCc1ccccc1)N[C@@H]1CNC1=O` [Example 10, 4-Benzyloxy-N-[(3R)-2-oxoazetidin-3-yl]-butanamide], for which the inhibition at 30 µM came to 10%. For the compound `O=C(N[C@H]1CNC1=O)c1ccc(OCc2ccccc2)cc1` [Example 11, 4-Benzyloxy-N-[(3S)-2-oxoazetidin-3-yl]-benzamide], the inhibition at 30 µM came to 10%.

For the compound `O=C(C/C=C/c1ccccc1)N[C@H]1CNC1=O` [Example 15, (E)-N-[(3S)-2-Oxoazetidin-3-yl]-4-phenyl-but-3-enamide], the inhibition at 30 µM came out at 20%.

Still in this assay, the particulars now being: @100 μM.
On to `O=C(CCCOCc1ccccc1)N[C@H]1CNC1=O` [Example 9, 4-Benzyloxy-N-[(3S)-2-oxoazetidin-3-yl]-butanamide], for which the “r-NAAA UPLC/MS assay (n.a.)” value is given as “n.a. (n.a. = <10% inhib.@100 μM)”.

For `CC1(C(=O)N[C@H]2CNC2=O)CCCCC1` [Example 13, 1-Methyl-N-[(3S)-2-oxoazetidin-3-yl]-cyclohexane-carboxamide], the “r-NAAA UPLC/MS assay (n.a.)” value is on record as “n.a. (n.a. = <10% inhib.@100 μM)”. On to `CC1(C(=O)N[C@@H]2CNC2=O)CCCCC1` [Example 14, 1-Methyl-N-[(3R)-2-oxoazetidin-3-yl]-cyclohexane-carboxamide], for which the “r-NAAA UPLC/MS assay (n.a.)” value is reported as “n.a. (n.a. = <10% inhib.@100 μM)”.

The assay is the same for the next values; noted with them: rat lung lysosomal NAAA preparation.
`CCCCC/C=C\CC(=O)N[C@H]1CNC1=O` [Example 6, (Z)—N-[(3S)-2-Oxoazetidin-3-yl]-non-3-enamide]: half-maximal inhibition (IC50) required 680 nM. As to `O=C(CCCCC1CCCCC1)N[C@H]1CNC1=O` [Example 16, 5-Cyclohexyl-N-[(3S)-2-oxoazetidin-3-yl]-pentanamide], the IC50 was determined as 1000 nM. On the same count and under the same terms, under `O=C(CCCCCC1CCCCC1)N[C@H]1CNC1=O` [Example 17, 6-Cyclohexyl-N-[(3S)-2-oxoazetidin-3-yl]-hexanamide] stands 130 nM.

The target in the next assay is T2, human NAAA (Homo sapiens, UniProt Q02083).
T2 construct: made in house; host or cells: HEK293 cells, stably transfected; soluble fraction after freeze/thaw
T2 sequence (Q02083 29-359): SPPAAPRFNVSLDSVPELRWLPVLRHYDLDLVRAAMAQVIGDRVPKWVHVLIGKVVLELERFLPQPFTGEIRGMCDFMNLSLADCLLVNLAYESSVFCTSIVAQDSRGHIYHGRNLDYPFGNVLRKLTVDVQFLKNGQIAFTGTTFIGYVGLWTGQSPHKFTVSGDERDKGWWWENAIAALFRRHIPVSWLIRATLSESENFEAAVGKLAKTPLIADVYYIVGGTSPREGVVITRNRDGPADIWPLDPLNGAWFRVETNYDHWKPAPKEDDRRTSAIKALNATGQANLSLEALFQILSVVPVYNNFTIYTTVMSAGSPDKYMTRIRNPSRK
In words: Fluorogenic h-NAAA assay. The format is biochemical. The conditions noted are these: @ 2.5 μM; read-out: h-NAAA Fluorogenic assay % inhib. Here is the method: Hek293 cells stably transfected with the human NAAA coding sequence cloned from a human spleen cDNA library were used as enzyme source. Recombinant HEK-hNAAA pellets were resuspended in homogenizing buffer, and sonicated. Samples were centrifuged at 800×g for 15 min at 4° C. and the supernatants were ultracentrifuged at 12,000×g for 30 min at 4° C. The pellets were resuspended in PBS pH 7.4 on ice and subjected to a freeze/thaw cycle at −80° C. (two freeze/thaw cycles at −80° C. for Examples 34-37). The suspension was finally centrifuged at 105,000×g for 1 h at 4° C. Protein concentration was measured and samples stored at −80° C. until use.
The assay was run in Optiplate 96-wells black plates, in a total reaction volume of 200 μL. NAAA protein preparation (4.0 μg for Examples except 34-37, which were 20.0 μg) was pre-incubated for 10 min with various concentrations of test compounds or vehicle control (5% DMSO) in 100 mM citrate/phosphate buffer (pH 4.5) containing 3.0 mM DTT, 0.1% Triton X-100, 0.05% BSA, 150 mM NaCl. N-(4-methyl-2-oxo-chromen-7-yl)-hexadecanamide was used as a substrate (5.0 μM) and the reaction carried over for 30 min at 37° C. The samples were then read in a Perkin Elmer Envision plate reader using an excitation wavelength of 360 nm and emission 460 nm. IC50 values were calculated by non-linear regression analysis of log [concentration]/inhibition curves using GraphPad Prism 5 (GraphPad Software Inc., CA—USA) applying a standard slope curve fitting.
On to `CCCCc1ccc(C(=O)N[C@H]2CNC2=O)cc1` [Example 33, 4-Butyl-N-[(3S)-2-oxoazetidin-3-yl]-benzamide], for which the inhibition at 2.5 µM amounted to 16%.

The same assay, now with this note: @ 50 μM; read-out: h-NAAA Fluorogenic assay % inhib.
Consider `O=C(CCc1ccccc1)N[C@H]1CNC1=O` [Example 19, 3-Phenyl-N-[(3S)-2-oxoazetidin-3-yl]-propanamide], for which the inhibition at 50 µM is 15%. On to `C[C@@H]1NC(=O)[C@H]1NC(=O)CCc1ccc(-c2ccccc2)cc1` [Example 29, N-[(2S,3S)-2-methyl-4-oxo-azetidin-3-yl]-3-(4-phenylphenyl)-propanamide], for which the inhibition at 50 µM was found to be 60%.

Staying with this assay, now noted: @100 μM.
With `O=C(CCc1ccc(-c2ccccc2)cc1)N[C@H]1CNC1=O` [Example 18, 3-(4-Phenylphenyl)-N-[(3S)-2-oxoazetidin-3-yl]-propanamide], the “h-NAAA Fluorogenic assay (n.a.)” value was “n.a. (n.a. = <10% inhib.@100 μM)”.

On to `O=C(CCc1ccccc1)N[C@@H]1CNC1=O` [Example 20, 3-Phenyl-N-[(3R)-2-oxoazetidin-3-yl]-propanamide], for which the “h-NAAA Fluorogenic assay (n.a.)” value was “n.a. (n.a. = <10% inhib.@100 μM)”. In the case of `O=C(CCCCc1ccccc1)N[C@@H]1CNC1=O` [Example 26, 5-Phenyl-N-[(3R)-2-oxoazetidin-3-yl]-pentanamide], the “h-NAAA Fluorogenic assay (n.a.)” value was “n.a. (n.a. = <10% inhib.@100 μM)”.

Staying with this assay, now noted: recombinant HEK-hNAAA preparation.
`CCCCCCCC(C)C(=O)N[C@H]1CNC1=O` (mixture of isomers) [Example 36, (2R)-2-methyl-N-[(3S)-2-oxoazetidin-3-yl]nonanamide and (2S)-2-methyl-N-[(3S)-2-oxoazetidin-3-yl]nonanamide]: the IC50 turned out to be 220 nM. Same read-out and setting: under `CCCCCCCCC(=O)N[C@@H]1CNC1=O` [Example 4, N-[(3R)-2-Oxoazetidin-3-yl]-nonanamide] stands 40000 nM; under `CCCCC/C=C\CC(=O)N[C@H]1CNC1=O` [Example 6, (Z)—N-[(3S)-2-Oxoazetidin-3-yl]-non-3-enamide], 1940 nM; under `O=C(CCCCCC1CCCCC1)N[C@H]1CNC1=O` [Example 17, 6-Cyclohexyl-N-[(3S)-2-oxoazetidin-3-yl]-hexanamide], 275 nM. Consider `CCCCCCC(=O)N[C@H]1CNC1=O` [Example 21, N-[(3S)-2-Oxoazetidin-3-yl]-heptanamide], for which the IC50 was determined as 7830 nM. Still for that read-out and setting: under `CCCCCCCC(=O)N[C@H]1CNC1=O` [Example 22, N-[(3S)-2-Oxoazetidin-3-yl]-octanamide] stands 930 nM; under `CCCCCCCCCCC(=O)N[C@H]1CNC1=O` [Example 24, N-[(3S)-2-Oxoazetidin-3-yl]-undecanamide], 43 nM.

With `O=C(CCCCc1ccccc1)N[C@H]1CNC1=O` [Example 25, 5-Phenyl-N-[(3S)-2-oxoazetidin-3-yl]-pentanamide], the IC50 worked out at 33900 nM. Turning to `CCCCCCCCC(=O)N[C@@H]1C(=O)N[C@H]1C` [Example 28, N-[(2S,3S)-2-methyl-4-oxo-azetidin-3-yl]-nonanamide], the IC50 is 380 nM. The same measure, in the same setting: under `O=C(CCCCCc1ccccc1)N[C@H]1CNC1=O` [Example 31, 6-Phenyl-N-[(3S)-2-oxoazetidin-3-yl]-hexanamide] stands 13400 nM; under `O=C(CCCc1ccccc1)N[C@H]1CNC1=O` [Example 32, 4-Phenyl-N-[(3S)-2-oxoazetidin-3-yl]-butanamide], 110000 nM. Regarding `CCCC[C@H]1CC[C@H](C(=O)N[C@H]2CNC2=O)CC1` [Example 34, (1r,4R)-4-butyl-N—((S)-2-oxoazetidin-3-yl)cyclohexanecarboxamide], the IC50 came to 4020 nM. Regarding `CCCc1ccc(CC(=O)N[C@H]2CNC2=O)cc1` [Example 35, N-[(3S)-2-oxoazetidin-3-yl]-2-(4-propylphenyl)acetamide], the IC50 is 15600 nM. On the same count and under the same terms, under `CCCCCCCC(C)(C)C(=O)N[C@H]1CNC1=O` [Example 37, 2,2-dimethyl-N-[(3S)-2-oxoazetidin-3-yl]nonanamide] stands 758 nM.
